Assay results published in patent US20160011174A1, “Assay for Determining the Cell Number in Cultured Cells” (KEELE UNIVERSITY, priority 2013, published 2016).

Columns and labels:
hepG2 cells [1] = assay: Removal of added AA from DMEM medium by hepG2 cells (SIFT-MS headspace); format: in vitro ADME, human; settings: 20 million hepG2 cells; for headspace AA concentration after incubation with cells: 16 hours
Protocol: (§1) The inhibitor solutions were then added to volumes of medium so that the final DMSO concentration was always 0.1% v/v (or ˜14 500 μM). In some experiments, inhibitors were added to hMSCs during routine culture, some 24 hours prior to proceeding to the next phase of the analysis, but this pre-treatment was not employed in the hepG2 experiments. […] The importance of precursor ions in the analysis is explained further in the SIFT-MS section below. The method used for the preparation of cell cultures for SIFTMS headspace analysis was adapted from the previous studies published in 2003 (ref. 21) and 2009 (ref. 22). On the evening prior to the analysis, the cells were removed from the tissue culture flasks using trypsin, counted using a haemocytometer, and suspended in fresh DMEM media containing the ALDH inhibitor where appropriate, inside 150 mL glass bottles. […] The headspace of each bottle was purged with dry cylinder air before the bottles were finally sealed with metal caps, which incorporate rubber septa, and placed inside an incubator to be held at 37° C. for around 16 hours/overnight.
The methodology of SIFT-MS analyses for the sampling and quantification of compounds in the headspace of liquid samples has been described in detail previously (Refs 21,22,27-32). […] The product ions and the precursor ions are then analysed by a quadrupole mass spectrometer/detection system. Throughout the present study the instrument was operated in the multiple ion monitoring (MIM) mode, during which the desired precursor ion and its hydrates (Ref 33) and the characteristic product ions, are continuously monitored. This system, in combination with the previously compiled kinetics data for the reactions between the precursor ions and neutral molecules (Refs 34,35 rapidly allows the simultaneous absolute quantification of the concentrations of several selected volatile compounds of interest. The simultaneous detection and analysis of AA and DMS in a mixture presents a peculiar problem to SIFT-MS because of the overlap of characteristic product ions on which the analysis depends. However, the ion chemistry involved has been studied in detail and the kinetics database entries required for the accurate analyses of these two compounds by SIFT-MS have been constructed by following the guidelines given by previous studies (refs 34,35). In brief, AA was analysed using H3O^+ precursor ions and the unique protonated AA characteristic product ion at m/z 45, as described in detail in a recent paper (Ref 36). […]
Removal of AA from DMEM medium by cellular action. […] Identical medium samples without cells were also analysed (as described above) to obtain the starting (background) headspace AA concentration. […]

hMSCs = assay: SIFT-MS headspace DMS in hMSC cultures (DMSO reduction to DMS); format: cell-based, human; settings: approximately 5(10^6) hMSCs, 24 hours pre-treatment plus 16 hours sealed incubation, 0.1% v/v DMSO
Protocol: (§2) Human mesenchymal stem cells, hMSCs, are a primary cell type, and were isolated from a bone marrow aspirate sample (person; Lonza, US) using the plastic-adherence methodology and the hepG2 cells are of a human hepatocellular carcinoma cell line (Eton Bioscience, US), a cell line commonly used for the study of liver function. In both cases, the cells were cultured to confluence in Dulbecco's modified Eagle's medium (DMEM; Lonza, UK), supplemented with 10% v/v foetal bovine serum (FBS; Lonza, UK), 50 U mL^−1 penicillin-streptomycin (Lonza, UK) and 2 mM L-glutamine (Lonza, UK). The hMSCs additionally contained 1% v/v non-essential amino acids. The hMSCs were not cultured beyond passage number 4, whereas the well-differentiated hepG2 cells were analysed before passage number 20.
(§3) The inhibitor solutions were then added to volumes of medium so that the final DMSO concentration was always 0.1% v/v (or ˜14 500 μM). […] On the evening prior to the analysis, the cells were removed from the tissue culture flasks using trypsin, counted using a haemocytometer, and suspended in fresh DMEM media containing the ALDH inhibitor where appropriate, inside 150 mL glass bottles. […]
(§4) The methodology of SIFT-MS analyses for the sampling and quantification of compounds in the headspace of liquid samples has been described in detail previously (Refs 21,22,27-32). […]

hepG2 cells [2] = assay: Live-dead staining viability after sealed bottle incubation; format: cell-based, human; settings: 1.5(10^7) hepG2 cells sealed 16 hours; 200 μM DEAB or 20 μM DSF
Protocol: In order to assess any changes in the viability of hepG2 cells due to the method of analysis, which requires the cells to be sealed inside a glass bottle for around 16 hours, cells were cultured to near-confluence using the untreated medium described earlier, and observed using a live-dead staining (Sigma, UK), and confocal microscopy. […] The cell-suspensions were then sealed inside 150 mL glass bottles and incubated at 37° C. for 16 hours. The suspensions were then removed from the bottles and assessed by the same live-dead staining.

ALDH [3] = assay: SIFT-MS headspace AA in hMSC cultures with ALDH inhibitors; format: cell-based, human; settings: approximately 5(10^6) hMSCs, 24 hours pre-treatment plus 16 hours sealed incubation
Protocol: as §2, §3, §4

hepG2 cells [4] = assay: SIFT-MS headspace DMS in hepG2 cultures (DMSO reduction to DMS); format: cell-based, human
Protocol: as §2, §1
(§5) The methodology of SIFT-MS analyses for the sampling and quantification of compounds in the headspace of liquid samples has been described in detail previously (Refs 21,22,27-32). […] The product ions and the precursor ions are then analysed by a quadrupole mass spectrometer/detection system. Throughout the present study the instrument was operated in the multiple ion monitoring (MIM) mode, during which the desired precursor ion and its hydrates (Ref 33) and the characteristic product ions, are continuously monitored. […] In brief, AA was analysed using H3O^+ precursor ions and the unique protonated AA characteristic product ion at m/z 45, as described in detail in a recent paper (Ref 36). […]

ALDH [5] = assay: SIFT-MS headspace acetaldehyde (AA) in hepG2 cultures with ALDH inhibitors; format: cell-based, human
Protocol: as §2
as §3, with “μM). In some experiments, inhibitors were added to hMSCs during routine culture, some 24 hours prior to proceeding to the next phase of the analysis, but this pre-treatment was not employed in the hepG2 experiments.” for “μM).”
as §5

[6] = test system: Caco2/TC7 colon tumour cell cultures; settings: cited from earlier work
[7] = 200 μM DEAB, about 1(10^7) hepG2 cells, 16 hours

**Q.** Which “reduction of headspace AA concentration by cells” value (hepG2 cells [1]; 50 mL DMEM, 16 hours at 37° C.) does the source give for `CC=O` [AA, acetaldehyde] here?
**A.** approximately 90%

**Q.** What about the “headspace AA concentration after incubation with cells” value (hepG2 cells [1]; starting 59 ppbv) of the same compound?
**A.** 20 ppbv

**Q.** What about the “headspace AA concentration after incubation with cells” value (hepG2 cells [1]; starting 396 ppbv) of the same compound?
**A.** 48 ppbv

**Q.** What about the “headspace AA concentration after incubation with cells” value (hepG2 cells [1]; starting 990 ppbv) of the same compound?
**A.** 118 ppbv

**Q.** Which “effect on DMS production from DMSO” value (hMSCs) does the source give for `CCN(CC)c1ccc(C=O)cc1` [DEAB] here?
**A.** effective at preventing DMS production from DMSO

**Q.** And the “viability by live-dead staining” value (hepG2 cells [2])?
**A.** little or no decline in the viability

**Q.** What about the “effect on ALDH / ability of hMSCs to metabolise AA” value (ALDH [3]) of the same compound?
**A.** effective inhibitor of ALDH

**Q.** What about the “decline in headspace DMS” value (hepG2 cells [4]; 0 to 25 μM DEAB, 1.5(10^7) hepG2 cells, 0.1% v/v DMSO) of the same compound?
**A.** 30%

**Q.** And the DMS production (hepG2 cells [4]; 200 μM DEAB, 1(10^4) to 5(10^6) hepG2 cells, 0.1% v/v DMSO)?
**A.** clearly reduced

**Q.** What about the “decline of slope of DMS concentration versus cell number” value (hepG2 cells [4]; 200 μM DEAB, 5(10^6) up to 3(10^7) hepG2 cells, 0.1% v/v DMSO) of the same compound?
**A.** about 30%

**Q.** What about the “peak AA concentration in the liquid phase” value (ALDH [5]; [7]) of the same compound?
**A.** 4 µM

**Q.** And the “peak headspace AA concentration” value (ALDH [5]; [7])?
**A.** around 600 ppbv

**Q.** And the “headspace AA concentration with increasing DEAB concentration” value (ALDH [5]; 1.5(10^7) hepG2 cells, 16 hours at 37° C., DEAB in 0.1% v/v DMSO)?
**A.** general increase in the AA concentration

**Q.** For `C[S+](C)[O-]` [DMSO, dimethyl sulphoxide], which “liquid phase DMS concentration formed from DMSO” value (hepG2 cells [4]; 0.1% v/v DMSO in medium, overnight incubation, by Henry's Law) is on record?
**A.** > 300 nM

**Q.** What about the “DMSO concentration causing no observable cytotoxicity” value [6] of the same compound?
**A.** up to 10 % (v/v)
